The values below come from PMC6596218, “Anthranilic amide and imidazobenzothiadiazole compounds disrupt Mycobacterium tuberculosis membrane potential” (MedChemComm, 2019).

Data set [1] concerns M. tuberculosis H37Rv. Description: Minimum bactericidal concentration at pH 4.5 (MBC4.5), luminescence readout. The class given is cell-based, Mycobacterium tuberculosis. The settings on record: for MBC: Mycobacterium tuberculosis, H37RV, 168 h; for antitubercular activity (by MBC4.5, in words): pH 4.5.
For data set [2], the system named is HepG2 cells. The experiment in a line: HepG2 cytotoxicity (CellTiter-Glo, 72 h). It is filed as cell-based. Particulars: Homo sapiens, mean ± standard deviation, replicates in parentheses. On the technique in general: Cellular ATP, detected with luciferase, serves as a proxy for viable cell number.
The test system of data set [3] is M. tuberculosis membrane potential. Description: M. tuberculosis membrane potential (DiOC2 red/green fluorescence ratio). The settings on record: CCCP positive control. It is filed as cell-based, Mycobacterium tuberculosis.
The subject of data set [4] is HepG2 cells. The class given is cell-based, human. Particulars: pH 7.4. Here is the method: Measurement of membrane potential in HepG2 human liver cells (ATCC) was adapted from the method published by Huang.[40] Cells were plated at a density of 50 000 cells per well (100 μL) in black-walled 96-well plates and incubated overnight. Culture medium was replaced with the same volume of assay buffer (80 mM NaCl, 75 mM KCl, 25 mM D-glucose, 25 mM HEPES pH 7.4) containing test compounds at indicated concentrations; CCCP and DMSO served as controls. Plates were incubated at 37 °C for 30 min, followed by incubation with 4 μM DiOC2 for 20 min at RT. Cells were washed 4 times with 150 μL assay buffer, and suspended in 100 μL of assay buffer. A Synergy H1 microplate reader (BioTek Instruments) was used to measure fluorescence (488 nm/530 nm and 488 nm/620 nm). Each test compound was evaluated in at least two replicate experiments.

Where [5] appears, read: median, pH 4.5 phosphate citrate buffer, 7 days, 2-log reduction threshold, replicates in parentheses.

Converted amounts (≈) assume the structure as drawn. “Also recorded” adds a separate entry of the source. Read-outs that look alike come from different tables or passages of the source.

As for `Nc1ccc2[nH]c(C3CCCCC3)nc2c1` [Compound 36], in data set [1] (setting [5]), the MBC – broadly, the smallest concentration meeting the test's criterion for killing – worked out at 100 µM (≈ 21.5 µg/mL). Moreover, the IC50 – broadly, the concentration that inhibits the measured activity by half – in data set [2] is greater than 100 µM.
The matching figures for `CCNC(=O)c1ccccc1NS(=O)(=O)c1ccc(Br)cc1` [Compound 5, 2-(4-bromophenylsulfonamido)-N-ethylbenzamide]: greater than 200 µM and greater than 100 µM.
On the same counts, the results for `O=C(NC1CC1)c1ccccc1NS(=O)(=O)c1ccc(Br)cc1` [Compound 17, 2-(4-bromophenylsulfonamido)-N-cyclopropylbenzamide] are greater than 200 µM and greater than 100 µM.
On the same counts, the results for `O=C(Nc1ccc(Cl)cc1Cl)c1ccccc1NCc1ccc(Br)cc1` [Compound 12, 2-((4-bromobenzyl)amino)-N-(2,4-dichlorophenyl)benzamide] are greater than 200 µM and greater than 100 µM.
With `O=C(NC1C2CC3CC(C2)CC1C3)c1ccccc1NS(=O)(=O)c1ccc(Br)cc1` (centres unmarked) [Compound 20, N-(adamantan-2-yl)-2-(4-bromophenylsulfonamido)benzamide], the minimal bactericidal concentration (MBC) in data set [1] (setting [5]) is greater than 200 µM. Besides, in data set [2], the IC50 stood at 20 ± 4.2 µM.
With `C#CCNC(=O)c1ccccc1NS(=O)(=O)c1ccc(Br)cc1` [Compound 18, 2-(4-bromophenylsulfonamido)-N-(pro-2-yn-1-yl)benzamide], the minimal bactericidal concentration (MBC) in data set [1] (setting [5]) was greater than 200 µM. For the same molecule, the IC50 in data set [2] is 83 ± 12 µM.
Take `O=C(Nc1ccc(Cl)cc1)[C@@H]1CCCC[C@@H]1NS(=O)(=O)c1ccc(Br)cc1` (relative stereo) [Compound 30, cis-2-(4-bromophenylsulfonamido)-N-(4-chlorophenyl)cyclohexanecarboxamide]: in data set [1] (setting [5]), the MBC is greater than 200 µM. In data set [2], the IC50 worked out at 76 ± 12 µM.
Regarding `O=C(Nc1ccccc1)c1ccccc1NS(=O)(=O)c1ccc(Br)cc1` [Compound 4, 2-(4-bromophenylsulfonamido)-N-phenylbenzamide], the MBC in data set [1] (setting [5]) was determined as 100 µM (≈ 43.1 µg/mL). Also, the IC50 in data set [2] was 30 ± 3.5 µM. The “disruption of M. tuberculosis membrane potential at pH 5.6” value (“disruption … at pH 5.6” below) in data set [3] is “comparable disruption to CCCP at concentrations one or more orders of magnitude below their MBC4.5”. In addition, the “disruption of HepG2 cell membrane potential” value in data set [4] (human, 30 min) is reported as “decrease in membrane potential in HepG2 cells comparable in magnitude to CCCP at concentrations significantly below the IC50”.
For the molecule `O=S(=O)(Nc1ccccc1CNc1ccc(Cl)cc1Cl)c1ccc(Br)cc1` [Compound 28, 4-bromo-N-(2-(((2,4-dichlorophenyl)amino)methyl)phenyl)benzenesulfonamide], the MBC in data set [1] (setting [5]) is greater than 200 µM. Moreover, the IC50 in data set [2] is 33 µM.
On the same counts, the results for `Nc1ccccc1C(=O)Nc1ccc(Cl)cc1Cl` [Compound 9, 2-amino-N-(2,4-dichlorophenyl)benzamide] are 200 µM (≈ 56.2 µg/mL) and 40 ± 2.3 µM.
For `O=C(Nc1ccc(Cl)cc1Cl)c1ccccc1S(=O)(=O)c1ccc(Br)cc1` [Compound 27, 2-((4-bromophenyl)sulfonyl)-N-(2,4-dichlorophenyl)benzamide], the MBC in data set [1] (setting [5]) was greater than 200 µM. The “antitubercular activity (by MBC4.5, in words)” value (“antitubercular activity” for short) in data set [1] was “loss of antitubercular activity”. The IC50 in data set [2] stood at 89 ± 18 µM.
For the molecule `O=C(Nc1ccc(Cl)cc1Cl)c1ccccc1NS(=O)(=O)c1ccc(Br)cc1` [Compound 1], in data set [1] (setting [5]), the MBC turned out to be 6.3 µM (≈ 3.15 µg/mL) and the MBC4.5 is recorded as 6.3 (5) μM. The IC50 in data set [2] stood at 6.2 ± 1.1 µM. Moreover, the “disruption … at pH 5.6” value in data set [3] is “comparable disruption to CCCP at concentrations one or more orders of magnitude below their MBC4.5”. The “disruption of M. tuberculosis membrane potential at pH 6.8” value in data set [3] (pH 6.8) is recorded as “depolarized the membrane nearly as strongly as known uncoupler carbonyl cyanide m-chlorophenyl hydrazone (CCCP)”.
With `O=C(Nc1ccc(Cl)cc1Cl)c1cccc(NS(=O)(=O)c2ccc(Br)cc2)c1` [Compound 26, 3-(4-bromophenylsulfonamido)-N-(2,4-dichlorophenyl)benzamide], the MBC in data set [1] (setting [5]) was greater than 200 µM. The “antitubercular activity” value in data set [1] was “loss of antitubercular activity”. Further, the IC50 in data set [2] came to 34 ± 3.5 µM.
With `O=C(c1ccccc1NS(=O)(=O)c1ccc(Br)cc1)N1CCCCC1` [Compound 21, 4-bromo-N-(2-(piperidine-1-carbonyl)phenyl)benzenesulfonamide], the minimum bactericidal concentration (MBC) in data set [1] (setting [5]) is greater than 200 µM. In addition, the IC50 in data set [2] was greater than 100 µM.
The matching figures for `O=C(Nc1ccccc1C(=O)Nc1ccc(Cl)cc1Cl)c1ccc(Br)cc1` [Compound 14, 2-(4-bromobenzamido)-N-(2,4-dichlorophenyl)benzamide]: greater than 200 µM and greater than 100 µM.
For the molecule `CCNc1ccccc1C(=O)Nc1ccc(Cl)cc1Cl` [Compound 10, N-(2,4-dichlorophenyl)-2-(ethylamino)benzamide], the MBC in data set [1] (setting [5]) is greater than 200 µM. Moreover, in data set [2], the IC50 was greater than 100 µM. In data set [3], the “disruption … at pH 5.6” value is reported as “caused membrane hyperpolarization”. Also, the “disruption of HepG2 cell membrane potential” value in data set [4] (human, 30 min) was “did not disrupt membrane potential at concentrations up to 200 μM”.
Regarding `FC(F)(F)c1nc2ccc3nsnc3c2[nH]1` [Compound 34], the MBC in data set [1] (setting [5]) worked out at 75 µM (≈ 18.3 µg/mL). Also, in data set [2], the half-inhibitory concentration (IC50) was 70 ± 11 µM.
In the case of `O=C(c1ccccc1NS(=O)(=O)c1ccc(Br)cc1)N1CCOCC1` [Compound 22, 4-bromo-N-(2-(morpholine-4-carbonyl)phenyl)benzenesulfonamide], in data set [1] (setting [5]), the MBC is greater than 200 µM. In data set [2], the IC50 was greater than 100 µM.
On to `CCCCNC(=O)c1ccccc1NS(=O)(=O)c1ccc(Br)cc1` [Compound 16, 2-(4-bromophenylsulfonamido)-N-butylbenzamide], for which the MBC in data set [1] (setting [5]) came to 100 µM (≈ 41.1 µg/mL). Also, the “antitubercular activity” value in data set [1] is recorded as “showed measurable anti-tubercular activity”. Moreover, the IC50 in data set [2] came to 59 ± 0.71 µM. Also, the “disruption … at pH 5.6” value in data set [3] is “disruption at significantly lower concentrations relative to pH 6.8; also recorded: comparable disruption to CCCP at concentrations one or more orders of magnitude below their MBC4.5; also recorded: larger, more consistent degree of separation from DMSO than CCCP”. Also, the “disruption of HepG2 cell membrane potential” value in data set [4] (human, 30 min) was “decrease in membrane potential in HepG2 cells comparable in magnitude to CCCP at concentrations significantly below the IC50”.
`O=C(Nc1ccc(Cl)cc1)[C@@H]1CCCC[C@H]1NS(=O)(=O)c1ccc(Br)cc1` (relative stereo) [Compound 31, trans-2-(4-bromophenylsulfonamido)-N-(4-chlorophenyl)cyclohexanecarboxamide]: in data set [1] (setting [5]), the minimum bactericidal concentration (MBC) is greater than 200 µM. In addition, the IC50 in data set [2] amounted to 67 ± 12 µM.
The matching figures for `CN1CCN(C(=O)c2ccccc2NS(=O)(=O)c2ccc(Br)cc2)CC1` [Compound 23, 4-bromo-N-(2-(4-methylpiperizine-1-carbonyl)phenyl)benzenesulfonamide]: greater than 200 µM and greater than 100 µM.
Regarding `O=[N+]([O-])c1c(Sc2ccccn2)ccc2nsnc12` [Compound 38], the MBC in data set [1] (setting [5]) turned out to be 25 µM (≈ 7.26 µg/mL). Also, in data set [2], the IC50 was determined as 4.8 ± 0.86 µM. In data set [4], the “disruption of HepG2 cell membrane potential” value is reported as “drop in membrane potential”.
Consider `O=C(Nc1ccc(Cl)cc1Cl)c1ccccc1NS(=O)(=O)c1ccccc1` [Compound 7, N-(2,4-dichlorophenyl)-2-(phenylsulfonamido)benzamide], for which, in data set [1] (setting [5]), the MBC was greater than 200 µM. The IC50 in data set [2] is 19 ± 9.2 µM.
The matching figures for `O=C(Nc1ccc(Cl)cc1)c1cccnc1NS(=O)(=O)c1ccc(Br)cc1` [Compound 33, 2-(4-bromophenylsulfonamido)-N-(4-chlorophenyl)nicotinamide]: greater than 200 µM and 20 ± 5.7 µM.
The matching figures for `CCn1cnc2c3nsnc3ccc21` [Compound 35]: 75 µM (≈ 15.3 µg/mL) and greater than 100 µM.
The matching figures for `O=S(=O)(Nc1ccccc1COc1ccc(Cl)cc1Cl)c1ccc(Br)cc1` [Compound 29, 4-bromo-N-(2-((2,4-dichlorophenoxy)methyl)phenyl)benzenesulfonamide]: greater than 200 µM and 24 ± 6.4 µM.
With `CC(=O)Nc1ccccc1C(=O)Nc1ccc(Cl)cc1Cl` [Compound 13, 2-acetamido-N-(2,4-dichlorophenyl)benzamide], in data set [1] (setting [5]), the MBC was greater than 200 µM. In addition, in data set [2], the IC50 is greater than 100 µM.
Take `Cc1nnc(Sc2ccc3nsnc3c2[N+](=O)[O-])s1` [Compound 37]: the MBC in data set [1] (setting [5]) was found to be 19 µM (≈ 5.92 µg/mL). Further, the IC50 in data set [2] is 5.6 ± 3.2 µM. Moreover, the “disruption of HepG2 cell membrane potential” value in data set [4] is reported as “drop in membrane potential”.
`O=C(NC1CCCCCC1)c1ccccc1NS(=O)(=O)c1ccc(Br)cc1` [Compound 19, 2-(4-bromophenylsulfonamido)-N-cycloheptylbenzamide]: in data set [1] (setting [5]), the MBC was greater than 200 µM. In addition, in data set [2], the 50% inhibitory concentration (IC50) turned out to be 24 ± 6.4 µM.
The matching figures for `O=C(Nc1ccc(Cl)cc1)c1ncccc1NS(=O)(=O)c1ccc(Br)cc1` [Compound 32, 3-(4-bromophenylsulfonamido)-N-(4-chlorophenyl)picolinamide]: greater than 200 µM and 5 ± 1.4 µM.
